From PubChem BioAssay AID330 (DTP/NCI, 2004)
Where “and” joins values, the source holds several entries; their conditions need not be identical. Equal values may be shown once. Inconclusive results and toxic doses are left out. The calls were made as follows: active = survival T/C of 150% or more; inactive = T/C below 125% in these data. Peptide text beside a SMILES is read from it. * marks the point of attachment. Boc = CC(C)(C)OC(=O)*; NHNH2 = NN*

Test system: P388 leukemia ip, CD2F1 mice, survival T/C
Test: NCI In Vivo Anticancer Drug Screen. Data for tumor model P388 Leukemia (intraperitoneal) in CD2F1 (CDF1) mice
Conditions: endpoint: median survival time, higher = longer survival
Summary of the method: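 Mice carrying the transplanted tumor received test compound or vehicle. Survival was recorded in each group, and the value is the treated-group measurement divided by that of the vehicle-treated control group.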

[1] = dose: 100.0 mg/kg/injection, schedule: Q01DX001 (ip), vehicle: saline with Tween-80
[2] = dose: 200.0 mg/kg/injection, schedule: Q01DX001 (ip), vehicle: saline with Tween-80
[3] = dose: 400.0 mg/kg/injection, schedule: Q01DX001 (ip), vehicle: saline with Tween-80
[4] = dose: 50.0 mg/kg/injection, schedule: Q01DX005 (ip), vehicle: saline with Tween-80
[5] = dose: 100.0 mg/kg/injection, schedule: Q01DX005 (ip), vehicle: saline with Tween-80
[6] = dose: 200.0 mg/kg/injection, schedule: Q01DX005 (ip), vehicle: saline with Tween-80
[7] = dose: 60.0 mg/kg/injection, schedule: Q01DX005 (ip), vehicle: saline with Tween-80
[8] = dose: 120.0 mg/kg/injection, schedule: Q01DX005 (ip), vehicle: saline with Tween-80
[9] = dose: 50.0 mg/kg/injection, schedule: Q01DX009 (ip), vehicle: saline with Tween-80
[10] = dose: 100.0 mg/kg/injection, schedule: Q01DX009 (ip), vehicle: saline with Tween-80
[11] = dose: 60.0 mg/kg/injection, schedule: Q01DX005 (ip), vehicle: Klucel (hydroxypropylcellulose) (HPC)
[12] = dose: 120.0 mg/kg/injection, schedule: Q01DX005 (ip), vehicle: Klucel (hydroxypropylcellulose) (HPC)
[13] = dose: 25.0 mg/kg/injection, schedule: Q01DX009 (ip), vehicle: other
[14] = dose: 50.0 mg/kg/injection, schedule: Q01DX009 (ip), vehicle: other
[15] = dose: 100.0 mg/kg/injection, schedule: Q01DX009 (ip), vehicle: other
[16] = dose: 200.0 mg/kg/injection, schedule: Q01DX009 (ip), vehicle: other

Measured: T/C

COc1cc(OCc2ccccc2)c(CC(=O)O)c([N+](=O)[O-])c1
inactive: [1] 100 % of control | [2] 100 % of control | [3] 90 % of control

C=C(C)CC(N)C(=O)O (stereo not drawn)
inactive: dose: 50.0 mg/kg/injection, schedule: Q01DX005 (ip), vehicle: saline 103 % of control | dose: 100.0 mg/kg/injection, schedule: Q01DX005 (ip), vehicle: saline 100 % of control | dose: 200.0 mg/kg/injection, schedule: Q01DX005 (ip), vehicle: saline 99 % of control

Cn1c(N)c(N=Nc2cccnc2)c(=O)n(C)c1=O
inactive: [1] 95 % of control | [2] 98 % of control | [3] 95 % of control

ON(CCc1ccncc1)CCc1ccncc1
inactive: [4] 100 % of control | [5] 98 % of control | [6] 100 % of control

O=C(Nc1ccc(N=Nc2ccccc2)cc1)SCCO
inactive: [4] 102 % of control | [5] 108 % of control

O=c1c2ccccc2n2nc3ccccc3c2n1-c1ccccc1
inactive: dose: 93.25 mg/kg/injection, schedule: Q04DX002 (ip), vehicle: Klucel (hydroxypropylcellulose) (HPC) 104 % of control | dose: 186.5 mg/kg/injection, schedule: Q04DX002 (ip), vehicle: Klucel (hydroxypropylcellulose) (HPC) 98 % of control | dose: 373.0 mg/kg/injection, schedule: Q04DX002 (ip), vehicle: Klucel (hydroxypropylcellulose) (HPC) 95 % of control

Cc1c2oc3c(C)ccc(C(=O)NC(C(=O)NC(C(=O)N(C)C)C(C)C)C(C)O)c3nc-2c(C(=O)NC(C(=O)NC(C(=O)N(C)C)C(C)C)C(C)O)c(N)c1=O (stereo not drawn)
inactive: dose: 0.05 mg/kg/injection, schedule: Q01DX009 (ip), vehicle: water 101 % of control | dose: 0.1 mg/kg/injection, schedule: Q01DX009 (ip), vehicle: water 100 % of control | dose: 0.2 mg/kg/injection, schedule: Q01DX009 (ip), vehicle: water 100 % of control | dose: 0.4 mg/kg/injection, schedule: Q01DX009 (ip), vehicle: water 108 % of control | dose: 0.8 mg/kg/injection, schedule: Q01DX009 (ip), vehicle: water 110 % of control | dose: 1.6 mg/kg/injection, schedule: Q01DX009 (ip), vehicle: water 99 % of control and 106 % of control | dose: 3.2 mg/kg/injection, schedule: Q01DX009 (ip), vehicle: water 101 % of control | dose: 6.4 mg/kg/injection, schedule: Q01DX009 (ip), vehicle: water 101 % of control | dose: 12.8 mg/kg/injection, schedule: Q01DX009 (ip), vehicle: water 106 % of control

N=C(N)c1ccc(NN=Nc2cccc3c2Oc2ccccc2O3)cc1
inactive: [4] 106 % of control | [5] 103 % of control | [6] 95 % of control

CON1C(=O)C(c2cccs2)=C2SCC=C21
inactive: dose: 15.0 mg/kg/injection, schedule: Q01DX005 (ip), vehicle: saline with Tween-80 107 % of control | dose: 30.0 mg/kg/injection, schedule: Q01DX005 (ip), vehicle: saline with Tween-80 112 % of control | [7] 112 % of control and 114 % of control | [8] 112 % of control

O=C(c1ccccc1)N(C(=S)N(C(=O)c1ccccc1)c1ccccc1)c1ccccc1
inactive: [7] 100 % of control | [8] 91 % of control | dose: 240.0 mg/kg/injection, schedule: Q01DX005 (ip), vehicle: saline with Tween-80 95 % of control

Cc1sc([S-])n[n+]1-c1ccccc1
inactive: dose: 6.25 mg/kg/injection, schedule: Q01DX009 (ip), vehicle: distilled water + Tween-80 93 % of control | dose: 12.5 mg/kg/injection, schedule: Q01DX009 (ip), vehicle: distilled water + Tween-80 90 % of control | dose: 25.0 mg/kg/injection, schedule: Q01DX009 (ip), vehicle: distilled water + Tween-80 96 % of control | dose: 50.0 mg/kg/injection, schedule: Q01DX009 (ip), vehicle: distilled water + Tween-80 97 % of control | dose: 100.0 mg/kg/injection, schedule: Q01DX009 (ip), vehicle: distilled water + Tween-80 110 % of control | dose: 200.0 mg/kg/injection, schedule: Q01DX009 (ip), vehicle: distilled water + Tween-80 105 % of control

COC(=O)Nc1cn2nc(N)sc2n1
inactive: [1] 102 % of control | [2] 101 % of control | [3] 99 % of control

CCOC(=O)C1OC1(C)c1ccccc1 (stereo not drawn)
inactive: [9] 102 % of control | [10] 100 % of control | dose: 200.0 mg/kg/injection, schedule: Q01DX009 (ip), vehicle: saline with Tween-80 107 % of control

OCC1(O)OCC(O)C(O)C1O (stereo not drawn)
inactive: dose: 100.0 mg/kg/injection, schedule: Q01DX009 (ip), vehicle: saline 99 % of control | dose: 200.0 mg/kg/injection, schedule: Q01DX009 (ip), vehicle: saline 98 % of control | dose: 400.0 mg/kg/injection, schedule: Q01DX009 (ip), vehicle: saline 105 % of control

Cc1ccc(Nc2c3ccccc3nc3c2cnn3-c2ccccc2)cc1
inactive: [11] 91 % of control | [12] 90 % of control | dose: 240.0 mg/kg/injection, schedule: Q01DX005 (ip), vehicle: Klucel (hydroxypropylcellulose) (HPC) 87 % of control

CCC(C)C(NC(=O)C(Cc1c[nH]c2ccccc12)NC(=O)OC(C)(C)C)C(=O)NN (stereo not drawn) (Boc-Trp-Ile-NHNH2; configuration not given here)
inactive: dose: 12.5 mg/kg/injection, schedule: Q01DX009 (ip), vehicle: other 97 % of control | [13] 91 % of control | [14] 87 % of control | [15] 94 % of control | [16] 100 % of control

O=C1CSC(c2c(F)cccc2Cl)N1c1ncccn1 (stereo not drawn)
inactive: [11] 109 % of control | [12] 111 % of control

COC(=O)C(C)N(CCCl)P(=O)(N1CC1)N1CC1 (stereo not drawn)
active: dose: 30.0 mg/kg/injection, schedule: Q01DX005 (ip), vehicle: saline 182 % of control
inactive: dose: 7.5 mg/kg/injection, schedule: Q01DX005 (ip), vehicle: saline 119 % of control

NC(N)=N/N=C1\C/C(=N\N=C(N)N)c2cc3ccccc3cc21
inactive: dose: 12.5 mg/kg/injection, schedule: Q01DX001 (ip), vehicle: saline with Tween-80 105 % of control | dose: 25.0 mg/kg/injection, schedule: Q01DX001 (ip), vehicle: saline with Tween-80 102 % of control | dose: 25.0 mg/kg/injection, schedule: Q01DX001 (ip), vehicle: saline 103 % of control | dose: 50.0 mg/kg/injection, schedule: Q01DX001 (ip), vehicle: saline with Tween-80 91 % of control | dose: 50.0 mg/kg/injection, schedule: Q01DX001 (ip), vehicle: saline 98 % of control | [1] 93 % of control | dose: 100.0 mg/kg/injection, schedule: Q01DX001 (ip), vehicle: saline 99 % of control

COc1ccc2c(c1)CCC1C2=NN=C2CCCC21 (stereo not drawn)
inactive: dose: 100.0 mg/kg/injection, schedule: Q01DX001 (ip), vehicle: Klucel (hydroxypropylcellulose) (HPC) 97 % of control | dose: 200.0 mg/kg/injection, schedule: Q01DX001 (ip), vehicle: Klucel (hydroxypropylcellulose) (HPC) 88 % of control | dose: 400.0 mg/kg/injection, schedule: Q01DX001 (ip), vehicle: Klucel (hydroxypropylcellulose) (HPC) 92 % of control

CCCCOP(O)(=S)OCCCC.[Eu]
inactive: dose: 100.0 mg/kg/injection, schedule: Q04DX002 (ip), vehicle: saline with Tween-80 96 % of control | dose: 200.0 mg/kg/injection, schedule: Q04DX002 (ip), vehicle: saline with Tween-80 91 % of control | dose: 400.0 mg/kg/injection, schedule: Q04DX002 (ip), vehicle: saline with Tween-80 90 % of control

Cc1ccc2ccc(CC(O)(c3ccccc3)c3ccccc3)nc2c1
inactive: [9] 100 % of control | [10] 88 % of control

CCOC(=O)c1ccc(NC(N)=O)cc1
inactive: [13] 101 % of control | [14] 102 % of control | [15] 98 % of control | [16] 98 % of control | dose: 400.0 mg/kg/injection, schedule: Q01DX009 (ip), vehicle: other 93 % of control

Cc1cccc(OC(=O)Nc2ccc(C(=O)O)c(O)c2)c1
inactive: [7] 106 % of control | [8] 90 % of control

NC(=S)n1nc(-c2ccccc2)c(N=Nc2ccccc2[N+](=O)[O-])c1-c1ccccc1
inactive: dose: 100.0 mg/kg/injection, schedule: Q04DX002 (ip), vehicle: Klucel (hydroxypropylcellulose) (HPC) 99 % of control | dose: 200.0 mg/kg/injection, schedule: Q04DX002 (ip), vehicle: Klucel (hydroxypropylcellulose) (HPC) 110 % of control | dose: 400.0 mg/kg/injection, schedule: Q04DX002 (ip), vehicle: Klucel (hydroxypropylcellulose) (HPC) 105 % of control
